# Results published in ChEMBL document CHEMBL2074175, “Transport of cyclic nucleotides and estradiol 17-beta-D-glucuronide by multidrug resistance protein 4. Resistance to 6-mercaptopurine and 6-thioguanine” (J Biol Chem, 2001).
# T1: ATP-binding cassette sub-family C member 4 (Homo sapiens, UniProt O15439)
# T1 sequence (O15439 whole entry): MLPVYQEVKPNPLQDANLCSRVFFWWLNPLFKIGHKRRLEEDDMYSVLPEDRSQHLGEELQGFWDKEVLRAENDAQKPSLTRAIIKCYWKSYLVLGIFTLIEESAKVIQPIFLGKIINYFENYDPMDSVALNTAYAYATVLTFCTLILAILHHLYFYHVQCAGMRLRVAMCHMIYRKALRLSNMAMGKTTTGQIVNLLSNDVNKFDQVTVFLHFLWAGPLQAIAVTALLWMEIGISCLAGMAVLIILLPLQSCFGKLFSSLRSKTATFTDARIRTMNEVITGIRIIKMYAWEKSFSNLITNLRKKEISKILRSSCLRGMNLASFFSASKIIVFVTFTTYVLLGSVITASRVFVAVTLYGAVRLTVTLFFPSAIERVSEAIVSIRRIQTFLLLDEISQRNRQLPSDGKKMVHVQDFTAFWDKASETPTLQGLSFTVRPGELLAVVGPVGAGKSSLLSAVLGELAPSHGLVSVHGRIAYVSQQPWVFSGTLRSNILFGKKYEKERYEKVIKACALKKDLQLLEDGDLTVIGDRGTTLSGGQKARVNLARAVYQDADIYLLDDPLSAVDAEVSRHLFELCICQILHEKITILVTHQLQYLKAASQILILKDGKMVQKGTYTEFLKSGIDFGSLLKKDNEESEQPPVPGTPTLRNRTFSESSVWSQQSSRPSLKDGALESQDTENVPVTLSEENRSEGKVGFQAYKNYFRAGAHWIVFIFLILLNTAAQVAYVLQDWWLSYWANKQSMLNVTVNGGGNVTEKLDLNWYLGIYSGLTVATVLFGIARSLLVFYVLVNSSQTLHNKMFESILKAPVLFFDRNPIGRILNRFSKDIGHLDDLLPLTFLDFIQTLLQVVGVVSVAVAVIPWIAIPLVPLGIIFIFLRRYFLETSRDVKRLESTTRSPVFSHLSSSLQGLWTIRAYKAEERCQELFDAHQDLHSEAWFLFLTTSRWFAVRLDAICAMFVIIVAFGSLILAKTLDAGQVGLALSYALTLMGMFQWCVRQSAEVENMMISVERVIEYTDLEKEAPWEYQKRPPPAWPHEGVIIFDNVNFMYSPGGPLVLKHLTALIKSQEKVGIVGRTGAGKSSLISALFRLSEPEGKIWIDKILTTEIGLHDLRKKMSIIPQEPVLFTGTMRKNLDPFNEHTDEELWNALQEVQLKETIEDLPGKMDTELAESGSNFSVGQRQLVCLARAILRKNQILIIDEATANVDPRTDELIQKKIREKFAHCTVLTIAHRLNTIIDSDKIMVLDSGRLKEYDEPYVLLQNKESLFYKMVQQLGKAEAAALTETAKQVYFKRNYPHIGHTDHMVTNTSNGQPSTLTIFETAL
# T2: MRP4 (ABCC4) (Homo sapiens, UniProt O15439)
# T2 sequence (O15439 whole entry): T1 sequence (O15439 whole entry)
# B1: ATP-binding cassette sub-family C member 4 (Homo sapiens) (protein)
# chain: T1 sequence (O15439 whole entry)
# What was measured:
# [1] = molecular target: T1, ATP-binding cassette sub-family C member 4; test: TP_TRANSPORTER: inhibition of E217betaG uptake (E217betaG: 1 uM, cGMP: 300 uM) in membrane vesicles from MRP4-expressing Sf9 cells; assay type: functional, cell membranes, Membrane vesicle; design: scale not given: the % may be the effect or the level left; conditions: sf9, 300 µM
# [2] = molecular target: T1, ATP-binding cassette sub-family C member 4; test: TP_TRANSPORTER: efflux in MRP4-expressing NIH3T3 cells; assay type: functional, cell-based; conditions: mouse
# MRP4 (ABCC4) = molecular target: T2, MRP4 (ABCC4); test: TP_TRANSPORTER: inhibition of E217betaG uptake (E217betaG: 1 uM, MTX: 300 uM) in membrane vesicles from MRP4-expressing Sf9 cells; assay type: functional, cell membranes, Membrane vesicle; design: scale not given: the % may be the effect or the level left; conditions: probe E217betaG (estradiol 17beta-glucuronide), read-out: Activity
# [3] = substrate: [H][C@@]12COP(=O)(O)O[C@@]1([H])[C@@H](O)[C@H](n1cnc3c(=O)[nH]c(N)nc31)O2; test: (§1) TP_TRANSPORTER: uptake in membrane vesicles from MRP4-expressing Sf9 cells; assay type: functional, cell membranes, Membrane vesicle
# [4] = substrate: C[C@]12CC[C@@H]3c4ccc(O)cc4CC[C@H]3[C@@H]1CC[C@@H]2O[C@@H]1O[C@H](C(=O)O)[C@@H](O)[C@H](O)[C@H]1O; test: as §1; assay type: functional, cell membranes, Membrane vesicle
molecule,measurement,setting,value
Nc1nc2c(ncn2[C@@H]2O[C@@H]3COP(=O)(O)O[C@H]3[C@H]2O)c(=O)[nH]1,Activity,[1],16.2%
Sc1ncnc2nc[nH]c12 [MERCAPTOPURINE ANHYDROUS],Activity,[2],substrate [+]
CN(Cc1cnc2nc(N)nc(N)c2n1)c1ccc(C(=O)N[C@@H](CCC(=O)O)C(=O)O)cc1 [METHOTREXATE],activity at 300 µM,MRP4 (ABCC4),40.3%
B1,Km,[3],9.69 µM
same,Km,[4],30.3 µM
